According to patent publication US20240150398A1, “PEPTIDES AND CONJUGATES THEREOF AS ACE-2 AND S1 SUBUNIT MIMICS AGAINST SEVERE ACUTE RESPIRATORY SYNDROME CORONAVIRUS-2 (SARS-COV2) INFECTION” (priority 2020, published 2024):

Molecular target: interaction between ACE-2 receptor and spike S1 protein of SARS-CoV2 (Severe acute respiratory syndrome coronavirus 2, UniProt P0DTC2)

| Sequence | interaction between ACE-2 receptor and spike S1 protein in presence of peptide |
| --- | --- |
| DKFNHEAEDLFY [Peptide 4] | blocked |
| QTFDKNHEDLYLQAKQLK [Peptide 3] | blocked |
